Data as given in patent US20200087248A1, “Fluoroallylamine Derivative And Use Thereof” (SICHUAN KELUN-BIOTECH BIOPHARMACEUTICAL CO., LTD., priority 2017, published 2020).
Counter-ions that a name gives are not always drawn.

Tests used:
VAP-1 = target: T1, VAP-1 (Homo sapiens, UniProt Q16853); experiment: Inhibition of the enzymatic activity of VAP-1 in vitro (Amplex Red); format: biochemical; details: VAP-1 protein about 20 nM, 10 min pre-incubation, benzylamine substrate; read-out: IC50, inhibition against the enzymatic activity of VAP-1
T1 construct: purchased R&D Systems
T1 sequence (Q16853 1-763): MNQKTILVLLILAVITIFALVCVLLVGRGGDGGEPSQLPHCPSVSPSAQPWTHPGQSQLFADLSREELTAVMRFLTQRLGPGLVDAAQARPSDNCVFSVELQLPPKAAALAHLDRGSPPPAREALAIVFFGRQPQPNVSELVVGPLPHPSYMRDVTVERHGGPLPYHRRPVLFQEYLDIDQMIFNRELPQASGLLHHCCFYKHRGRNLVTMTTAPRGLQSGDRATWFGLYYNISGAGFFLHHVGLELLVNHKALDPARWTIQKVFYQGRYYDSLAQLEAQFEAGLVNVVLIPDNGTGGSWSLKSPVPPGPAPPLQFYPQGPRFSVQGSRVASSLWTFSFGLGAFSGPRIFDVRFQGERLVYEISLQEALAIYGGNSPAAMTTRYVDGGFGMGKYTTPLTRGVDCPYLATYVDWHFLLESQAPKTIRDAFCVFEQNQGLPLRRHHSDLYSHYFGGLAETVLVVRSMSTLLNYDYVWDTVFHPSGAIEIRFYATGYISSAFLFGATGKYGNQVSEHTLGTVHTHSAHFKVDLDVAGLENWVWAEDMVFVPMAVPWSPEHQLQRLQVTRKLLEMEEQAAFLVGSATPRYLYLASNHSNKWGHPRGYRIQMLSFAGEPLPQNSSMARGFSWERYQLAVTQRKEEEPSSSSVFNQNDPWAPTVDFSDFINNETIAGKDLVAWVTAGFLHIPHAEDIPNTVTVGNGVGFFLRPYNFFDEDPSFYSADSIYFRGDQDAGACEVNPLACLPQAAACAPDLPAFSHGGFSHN
Procedure: Inhibition Experiment Against the Enzymatic Activity of VAP-1(Vascular Adhesion Protein 1) in vitro
(§1) Test kit: Amplex® Red Monoamine Oxidase Assay, Manufacturer: ThermoFisher
(§2) Reaction buffer solution: 50 mM PBS, pH 7.4
Enzyme: VAP-1, Manufacturer: R&D Systems
VAP-1 protein (about 20 nM) and different concentrations of the test compound were pre-incubated at room temperature for 10 minutes, followed by an addition of […] benzylamine hydrochloride, 1 U/mL HRP and 200 μM Amplex Red reagent according to the specification of the test kit to start the reaction. The reaction plate was placed in the enzyme marker, and in kinetic mode, fluorescence signals were measured at Ex/Em=540/590 nm. The relative inhibition activity of each concentration group was calculated, wherein the ratio (slope) of fluorescence signal to reaction time in the linear range is the reaction rate, the vehicle group (DMSO) is the negative control, and the reaction buffer solution group (without enzymes and the compounds) is the blank control. The half inhibition concentration (IC50) of the compound was calculated according to four-parameter model fitting curve.

[1] = target: T2, VAP-1 in abdominal fat of mice (Mus musculus, UniProt O70423); experiment: Inhibition of the enzymatic activity of VAP-1 ex-vivo, abdominal fat after oral dosing; format: in vivo, BALBc mice; details: abdominal fat collected after six hours; for inhibition at 0.5 mg/kg / inhibition at 2 mg/kg: mouse, read-out: Inhibition rate (%) against the enzymatic activity of VAP-1 (ex-vivo); for inhibition at 0.5 mg/kg: 0.5 mg/kg oral; for Inhibition rate (%) against the enzymatic activity of VAP-1 (ex-vivo) / inhibition at 2 mg/kg: 2 mg/kg oral
T2 construct: abdominal fat was collected and homogenized; from tissue; host or cells: abdominal fat of BALBc mice (homogenate supernatant)
T2 sequence (O70423 1-765): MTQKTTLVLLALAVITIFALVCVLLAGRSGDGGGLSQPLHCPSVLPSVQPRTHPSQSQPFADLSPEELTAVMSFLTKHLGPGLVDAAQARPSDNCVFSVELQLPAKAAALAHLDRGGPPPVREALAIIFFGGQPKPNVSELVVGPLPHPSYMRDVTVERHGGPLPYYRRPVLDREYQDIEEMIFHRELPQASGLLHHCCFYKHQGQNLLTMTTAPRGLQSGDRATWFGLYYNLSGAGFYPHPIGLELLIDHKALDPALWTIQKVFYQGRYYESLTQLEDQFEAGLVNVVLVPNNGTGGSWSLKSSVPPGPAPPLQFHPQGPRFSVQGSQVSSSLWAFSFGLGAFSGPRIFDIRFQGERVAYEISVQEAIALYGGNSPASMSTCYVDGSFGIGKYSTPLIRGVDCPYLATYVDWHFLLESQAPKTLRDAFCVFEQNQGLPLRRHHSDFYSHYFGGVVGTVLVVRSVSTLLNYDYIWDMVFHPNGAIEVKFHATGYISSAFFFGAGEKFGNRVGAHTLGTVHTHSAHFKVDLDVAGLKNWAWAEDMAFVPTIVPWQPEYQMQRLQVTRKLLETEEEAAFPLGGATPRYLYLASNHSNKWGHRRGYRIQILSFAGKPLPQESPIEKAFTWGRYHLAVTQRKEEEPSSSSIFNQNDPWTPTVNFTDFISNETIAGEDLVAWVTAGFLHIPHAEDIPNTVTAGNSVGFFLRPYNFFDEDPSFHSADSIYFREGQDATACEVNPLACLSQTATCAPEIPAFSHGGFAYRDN
Procedure: Inhibition Experiment Against the Enzymatic Activity (ex-vivo)
Tissue homogenate buffer solution (20 mM HEPES, pH 7.2, 1 mM EDTA, 250 mM sucrose, PMSF 0.2 mM)
as §2, §1
BALBc mice were administrated orally with different doses of the test compound, and the vehicle group was used as the control group. After six hours, abdominal fat was collected and homogenized at 1:20 (w/v) with the pre-cooled homogenate buffer solution, and thereafter, the homogenate was centrifuged at 10,000 g and 4° C. or 10 minutes, the supernatant was collected and stored at -80° C. for further use.
A test sample was diluted with the reaction buffer solution and successively added with the inhibition solution A: 1 μM Clorgyline+1 μM pargylin, to inhibit the activities of MAO-A and MAO-B, and the inhibition solution B: 1 μM Clorgyline+1 μM Pargylin+1 μM Mofegiline as the blank control, and after being incubated at room temperature for 20 min, 500 μM benzylamine hydrochloride, 1 U/mL HRP and 200 μM Amplex Red reagent were added to start the reaction. By referring to the method in “Experiment of inhibiting the enzymatic activity of VAP-1”, relative activity of each dose group was calculated, wherein the ratio of the fluorescent signal to reaction time in the linear range is the reaction rate, and the vehicle group is the positive control, thereby to study the inhibition of the compound against the enzymatic activity of VAP-1 in abdominal fat of mice.

hERG = target: T3, hERG (Homo sapiens, UniProt Q12809); experiment: hERG fluorescence polarization inhibition experiment; details: hERG cell membrane, 25° C. 2 hours, read-out: hERG (IC50 range, competitive binding vs tracer)
T3 construct: purchased ThermoFisher; host or cells: hERG cell membrane supplied with the kit
Procedure: hERG (Ether-a-go-go-related Gene Potassium Channel) Inhibition Experiment
Reagent: Predictor™ hERG Fluorescence Polarization Assay Kit, Manufacturer: ThermoFisher
The above test kit was used to evaluate the potential of the compound for inducing heart QT prolongation. According to the method as indicated in the specification of the test kit, the test compound, the positive control (E4031) and negative control (Experimental buffer solution) in the kit were added to a microwell plate containing hERG cell membrane, and then a tracer having high affinity to hERG was added. The microwell plate was then incubated at 25° C. for 2 hours, a BMG PHAREStar polyfunctional enzyme marker was used to test the variations in the fluorescent polarization value. By calculating the percent inhibition rates (%) at different concentrations, the range of the half inhibition concentration (IC50) was determined:
Percent inhibition rate (%)=(1-(mP of the test compound-mP of 30 μM E4031)/(mP of experimental buffer solution-mP of 30 μM E4031))*100.

T3 sequence (Q12809 whole entry): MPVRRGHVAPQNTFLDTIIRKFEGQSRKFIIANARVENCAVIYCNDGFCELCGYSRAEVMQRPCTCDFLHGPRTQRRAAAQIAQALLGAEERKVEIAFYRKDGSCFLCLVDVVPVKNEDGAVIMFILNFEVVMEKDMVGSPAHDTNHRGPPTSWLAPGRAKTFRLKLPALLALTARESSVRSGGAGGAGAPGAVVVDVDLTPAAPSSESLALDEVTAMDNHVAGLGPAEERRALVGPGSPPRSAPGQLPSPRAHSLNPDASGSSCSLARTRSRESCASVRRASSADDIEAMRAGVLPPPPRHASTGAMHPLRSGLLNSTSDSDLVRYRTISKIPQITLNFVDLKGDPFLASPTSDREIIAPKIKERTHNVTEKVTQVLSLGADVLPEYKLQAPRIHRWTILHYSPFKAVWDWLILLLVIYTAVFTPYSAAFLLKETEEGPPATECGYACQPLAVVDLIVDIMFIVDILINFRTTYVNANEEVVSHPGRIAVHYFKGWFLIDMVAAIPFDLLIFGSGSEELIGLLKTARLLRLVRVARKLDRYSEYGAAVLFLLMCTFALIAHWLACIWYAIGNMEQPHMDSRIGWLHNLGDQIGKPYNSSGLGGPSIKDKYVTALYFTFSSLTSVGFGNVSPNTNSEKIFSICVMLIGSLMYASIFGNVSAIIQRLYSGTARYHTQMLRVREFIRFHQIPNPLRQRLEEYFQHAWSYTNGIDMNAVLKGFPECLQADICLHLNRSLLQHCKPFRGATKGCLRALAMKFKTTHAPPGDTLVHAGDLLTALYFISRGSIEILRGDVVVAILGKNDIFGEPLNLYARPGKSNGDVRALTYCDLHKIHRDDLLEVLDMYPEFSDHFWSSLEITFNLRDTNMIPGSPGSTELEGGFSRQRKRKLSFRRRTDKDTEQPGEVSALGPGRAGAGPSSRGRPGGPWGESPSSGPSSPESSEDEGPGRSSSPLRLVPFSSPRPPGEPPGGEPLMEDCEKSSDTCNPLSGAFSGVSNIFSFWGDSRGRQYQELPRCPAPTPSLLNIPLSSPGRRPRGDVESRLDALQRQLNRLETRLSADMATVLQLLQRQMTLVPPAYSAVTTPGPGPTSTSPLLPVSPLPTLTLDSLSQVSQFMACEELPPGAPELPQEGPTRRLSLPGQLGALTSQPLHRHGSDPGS

| SMILES | IC50 (VAP-1) [nM] | inhibition at 0.5 mg/kg [1] [%] | Inhibition rate (%) against the enzymatic activity of VAP-1 (ex-vivo) [1] | inhibition at 2 mg/kg [1] [%] | IC50 (hERG) [nM] |
| --- | --- | --- | --- | --- | --- |
| NC/C(=C/F)COc1ccc(C(=O)Nc2ccccc2)cc1 [TM1-Z, (Z)-N-phenyl-4-((2-aminomethyl-3-fluoroallyl)oxy)-benzamide trifluoroacetate] | 0.7 ± 0.1 | 93.3 ± 5.4 |  |  | > 10000 |
| NCC(=CF)COc1ccc2c(c1)CN(Cc1ccc(Cl)cc1)C2=O [TM33, 5-((2-aminomethyl-3-fluoroallyl)oxy)-2-(4-chlorobenzyl)isoindolin-1-one] | 3.3 ± 0.2 |  | completely inhibited | 105 ± 9.1 |  |
| NC/C(=C/F)COc1ccc(-c2ncccn2)cc1 [TM39-Z, (Z)-2-(4-(2-pyrimidyl)phenoxymethyl)-3-fluoroallylamine trifluoroacetate] | 0.7 ± 0.1 | 93.2 ± 3.9 |  |  | > 10000 |
| NCC(=CF)COc1ccc(-c2nc3ccc(Cl)cc3s2)cc1 [TM41, 2-(4-(6-chloro-benzothiazol-2-yl)phenoxymethyl)-3-fluoroallylamine trifluoroacetate] | 4.8 ± 0.7 |  |  | 96.1 ± 17.4 |  |
| NCC(=CF)COc1ccc(C(=O)N2CCc3ccccc3C2)cc1 [TM45, (4-((2-aminomethyl-3-fluoroallyl)oxy)phenyl)-(3,4-dihydroisoquinolin-2(1H)-yl)methanone trifluoroacetate] | 0.9 ± 0.1 |  |  | 91.9 ± 6.4 | > 10000 |
| NCC(=CF)COc1ccc(C(=O)Nc2ccc(F)cc2)cc1 [TM61, N-(4-fluorophenyl)-4-((2-aminomethyl-3-fluoroallyl)oxy)-benzamide trifluoroacetate] | 0.5 |  |  | 99.7 ± 8.7 | > 10000 |
| Cc1csc(-c2ccc(OCC(=CF)CN)cc2)n1 [TM70, 2-(4-(4-methylthiazolyl-2-phenoxy)methyl)-3-fluoroallylamine trifluoroacetate] | 0.2 |  |  |  | > 30000 |

The next lines start with results.

| IC50 (VAP-1) [nM] | inhibition at 0.5 mg/kg [1] [%] | Inhibition rate (%) against the enzymatic activity of VAP-1 (ex-vivo) [1] | inhibition at 2 mg/kg [1] [%] | SMILES | IC50 (hERG) [nM] |
| --- | --- | --- | --- | --- | --- |
| 5.8 ± 1 |  | completely inhibited | 112 ± 7.1 | NCC(=CF)COc1ccc2c(c1)CCNC2=O.O=C(O)C(F)(F)F [TM26, 6-((2-aminomethyl-3-fluoroallyl)oxy)-3,4-dihydroisoquinolin-1(2H)-one trifluoroacetate] | > 30000 |
| 1.6 ± 0.2 |  | completely inhibited | 106 ± 8.4 | NCC(=CF)COc1ccc(-c2nc3ccccc3[nH]2)cc1.O=C(O)C(F)(F)F [TM42, 2-(4-(1H-benzoimidazol-2-yl)phenoxymethyl)-3-fluoroallylamine trifluoroacetate] | > 10000 |
| 3.4 ± 0.4 |  |  | 95.8 ± 6.2 | NCC(=CF)COc1ccc(C(=O)N2CCC(c3ccccc3)CC2)cc1 [TM44, (4-((2-aminomethyl-3-fluoroallyl)oxy)phenyl)-(4-phenylpiperidin-1-yl)methanone trifluoroacetate] | > 10000 |
| 4.4 ± 0.8 |  |  |  | NC/C(=C/F)COc1ccc(C(=O)N[C@H]2CCCc3ccccc32)cc1 [TM63-Z, (Z)-(S)-N-(1,2,3,4-tetrahydro-1-naphthyl)-4-((2-aminomethyl-3-fluoroallyl)oxy)-benzamide trifluoroacetate] | > 10000 |
| 11.5 ± 1.3 |  |  |  | Cc1ccc(N(C)C(=O)c2ccc(OCC(=CF)CN)cc2)cc1 [TM67, N-methyl-N-p-methylphenyl-4-((2-aminomethyl-3-fluoroallyl)oxy)-benzamide trifluoroacetate] | > 30000 |
